Measured values from US6881844B2, “Indole-3-carboxamides as glucokinase activators” (Hoffman-La Roche Inc., priority 2002, dated 2005).

First: Cc1ccc2c(C(=O)Nc3nccs3)cn(C(C)C)c2c1
Second: CC(C)n1cc(C(=O)Nc2nccs2)c2ccc(Cl)cc21
The melting point of the first is higher: 215 to 217 °C for the first, 202 to 204 °C for the second.

First: CCn1cc(C(=O)Nc2nccs2)c2ccc(Cl)cc21
Second: CCCn1cc(C(=O)Nc2nccs2)c2ccc(Cl)cc21
The melting point of the first is higher: 234 to 236 °C for the first, 175 to 176 °C for the second.

First: CCCCn1cc(C(=O)Nc2nccs2)c2ccc(Cl)cc21
Second: CCCCCn1cc(C(=O)Nc2nccs2)c2ccc(Cl)cc21
The melting point of the first is higher: 168 to 169 °C for the first, 139 to 141 °C for the second.

First: CC(C)Cn1cc(C(=O)Nc2nccs2)c2ccc(Cl)cc21
Second: CC(C)CCn1cc(C(=O)Nc2nccs2)c2ccc(Cl)cc21
The melting point of the first is higher: 200 to 202 °C for the first, 179 to 180 °C for the second.

First: O=C(Nc1nccs1)c1cn(CC2CC2)c2cc(Cl)ccc12
Second: O=C(Nc1nccs1)c1cn(CC2CCC2)c2cc(Cl)ccc12
The melting point of the first is higher: 185 to 187 °C for the first, 169 to 173 °C for the second.

Compared with `O=C(Nc1nccs1)c1cn(CC2CCCC2)c2cc(Cl)ccc12`, `O=C(Nc1nccs1)c1cn(CC2CCCCC2)c2cc(Cl)ccc12` is higher in melting point: 117 to 119 °C for the first, 181 to 183 °C for the second.

First: CC(C)n1cc(C(=O)Nc2nccs2)c2ccc(C(F)(F)F)cc21
Second: CC(C)n1cc(C(=O)Nc2nccs2)c2ccc(F)cc21
The melting point of the first is higher: 246 to 247 °C for the first, 203 to 204 °C for the second.

Compared with `CC(C)n1cc(C(=O)Nc2nncs2)c2ccc(Cl)cc21`, `Cc1csc(NC(=O)c2cn(C(C)C)c3cc(Cl)ccc23)n1` is lower in melting point: 274 to 275 °C for the first, 201 to 203 °C for the second.

First: Cc1cnc(NC(=O)c2cn(C(C)C)c3cc(Cl)ccc23)s1
Second: CC(C)n1cc(C(=O)Nc2ncc(Cl)s2)c2ccc(Cl)cc21
The melting point of the first is lower: 216 to 219 °C for the first, 252 to 253 °C for the second.

First: CC(C)n1cc(C(=O)Nc2ncc(Br)s2)c2ccc(Cl)cc21
Second: CC(C)n1cc(C(=O)Nc2ccc(Br)cn2)c2ccc(Cl)cc21
The melting point of the first is higher: 240 to 242 °C for the first, 57 to 64 °C for the second.

Compared with `CCOC(=O)Cc1csc(NC(=O)c2cn(C(C)C)c3cc(Cl)ccc23)n1`, `Cc1ccc(NC(=O)c2cn(C(C)C)c3cc(Cl)ccc23)nc1` is higher in melting point: 65 to 75 °C for the first, 132 to 134 °C for the second.

Compared with `CC(C)n1cc(C(=O)Nc2ccccn2)c2ccc(Cl)cc21`, `CC(C)n1cc(C(=O)Nc2ccc(Cl)cn2)c2ccc(Cl)cc21` is lower in melting point: 149 to 150 °C for the first, 131 to 134 °C for the second.

First: CC(C)n1cc(C(=O)Nc2ccc(C(F)(F)F)cn2)c2ccc(Cl)cc21
Second: CC(C)n1cc(C(=O)Nc2nccs2)c2ccc(O)cc21
The melting point of the first is lower: 179 to 181 °C for the first, 239 to 241 °C for the second.

First: CC(C)n1cc(C(=O)Nc2nccs2)c2ccc([N+](=O)[O-])cc21
Second: CC(C)n1cc(C(=O)Nc2nccs2)c2ccc(Br)cc21
The melting point of the first is higher: 236 to 239 °C for the first, 205 to 207 °C for the second.

First: COc1ccc2c(C(=O)Nc3nccs3)cn(C(C)C)c2c1
Second: CSc1ccc2c(C(=O)Nc3nccs3)cn(C(C)C)c2c1
The melting point of the first is higher: 182 to 185 °C for the first, 172 to 176 °C for the second.

`CC(C)n1cc(C(=O)Nc2nccs2)c2ccc(S(C)(=O)=O)cc21` gave a melting point of 247 to 249 °C.
